≈ marks a conversion by molar mass, not a printed value.
Experiments:
PC-12 [1] = test: Neuroprotective activity in rat PC12 cells assessed as inhibition of H2O2-induced cytotoxicity at 50 uM after 3 hrs by MTT assay relative to control; assay type: functional; conditions: PC-12, 3 h
[2] = Aqueous solubility of the compound by UV-Vis spectrophotometric analysis; assay type: physicochemical; conditions: water
PC-12 [3] = test: Neuroprotective activity in rat PC12 cells assessed as inhibition of H2O2-induced cytotoxicity at 25 uM after 3 hrs by MTT assay relative to control; assay type: functional; conditions: PC-12, 3 h
Plasma [4] = test: Anticoagulant activity in New Zealand white rabbit platelet-poor plasma assessed as prothrombin time at 100 uM; assay type: functional, Oryctolagus cuniculus
Plasma [5] = test: Anticoagulant activity in New Zealand white rabbit platelet-poor plasma assessed as fibrinogen content at 100 uM; assay type: functional, Oryctolagus cuniculus
[6] = test system: Radical scavenging activity; test: Antioxidant activity assessed as inhibition of DPPH-radical production; assay type: functional
Plasma [7] = test: Anticoagulant activity in New Zealand white rabbit platelet-poor plasma assessed as thrombin time at 100 uM; assay type: functional, Oryctolagus cuniculus
Plasma [8] = test: Anticoagulant activity in New Zealand white rabbit platelet-poor plasma assessed as activated partial thromboplastin time at 100 uM; assay type: functional, Oryctolagus cuniculus

Compound | inhibition at 50 µM (PC-12 [1]) [%] | solubility [2] [µM] | inhibition at 25 µM (PC-12 [3]) [%] | PT (Plasma [4]) [s] | Activity (Plasma [5]) [g/L] | IC50 [6] [µM] | TT (Plasma [7]) [s] | APTT (Plasma [8]) [s]
O=c1cc(-c2ccc(O)cc2)oc2cc(O[C@@H]3O[C@H](CO)[C@H](O)[C@H](O)[C@H]3O)c(O)c(O)c12 | 83.3 | 8.93 (≈ 4 µg/mL) | 61 | 9.93 | 20.81 | 28.4 | 29.17 | 39.62
O=c1cc(-c2ccc(O)cc2)oc2cc(O[C@@H]3O[C@H](CO)[C@@H](O)[C@H](O)[C@@H]3O)c(O)c(O)c12 | 56.4 | 8.19 (≈ 3.67 µg/mL) | 23.5 | 6.57 | 26.68 | 34.9 | 20.54 | 38.2
O=c1cc(-c2ccc(O)cc2)oc2cc(O[C@@H]3O[C@H](CO)[C@@H](O)[C@H](O)[C@H]3O)c(O)c(O)c12 | 79.9 | 7.85 (≈ 3.52 µg/mL) | 65.5 | 7.81 | 32.43 | 25.3 | 18.13 | 43.06
O=C(O)[C@H]1O[C@@H](Oc2cc3oc(-c4ccc(O)cc4)cc(=O)c3c(O)c2O)[C@H](O)[C@@H](O)[C@@H]1O [SCUTELLARIN] | 78.8 | 7.53 (≈ 3.48 µg/mL) | 52.6 | 6.91 | 37.96 | 26.8 | 21.35 | 33.06
